Holding throughout (type): functional
In assay [1] the target is T1, Apoptotic protease-activating factor 1 (Homo sapiens, UniProt O14727).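 Further: caspase-3 cleavage of fluorogenic Rh110 DEVD substrate downstream of apoptosome activation.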
T1 sequence (O14727 whole entry): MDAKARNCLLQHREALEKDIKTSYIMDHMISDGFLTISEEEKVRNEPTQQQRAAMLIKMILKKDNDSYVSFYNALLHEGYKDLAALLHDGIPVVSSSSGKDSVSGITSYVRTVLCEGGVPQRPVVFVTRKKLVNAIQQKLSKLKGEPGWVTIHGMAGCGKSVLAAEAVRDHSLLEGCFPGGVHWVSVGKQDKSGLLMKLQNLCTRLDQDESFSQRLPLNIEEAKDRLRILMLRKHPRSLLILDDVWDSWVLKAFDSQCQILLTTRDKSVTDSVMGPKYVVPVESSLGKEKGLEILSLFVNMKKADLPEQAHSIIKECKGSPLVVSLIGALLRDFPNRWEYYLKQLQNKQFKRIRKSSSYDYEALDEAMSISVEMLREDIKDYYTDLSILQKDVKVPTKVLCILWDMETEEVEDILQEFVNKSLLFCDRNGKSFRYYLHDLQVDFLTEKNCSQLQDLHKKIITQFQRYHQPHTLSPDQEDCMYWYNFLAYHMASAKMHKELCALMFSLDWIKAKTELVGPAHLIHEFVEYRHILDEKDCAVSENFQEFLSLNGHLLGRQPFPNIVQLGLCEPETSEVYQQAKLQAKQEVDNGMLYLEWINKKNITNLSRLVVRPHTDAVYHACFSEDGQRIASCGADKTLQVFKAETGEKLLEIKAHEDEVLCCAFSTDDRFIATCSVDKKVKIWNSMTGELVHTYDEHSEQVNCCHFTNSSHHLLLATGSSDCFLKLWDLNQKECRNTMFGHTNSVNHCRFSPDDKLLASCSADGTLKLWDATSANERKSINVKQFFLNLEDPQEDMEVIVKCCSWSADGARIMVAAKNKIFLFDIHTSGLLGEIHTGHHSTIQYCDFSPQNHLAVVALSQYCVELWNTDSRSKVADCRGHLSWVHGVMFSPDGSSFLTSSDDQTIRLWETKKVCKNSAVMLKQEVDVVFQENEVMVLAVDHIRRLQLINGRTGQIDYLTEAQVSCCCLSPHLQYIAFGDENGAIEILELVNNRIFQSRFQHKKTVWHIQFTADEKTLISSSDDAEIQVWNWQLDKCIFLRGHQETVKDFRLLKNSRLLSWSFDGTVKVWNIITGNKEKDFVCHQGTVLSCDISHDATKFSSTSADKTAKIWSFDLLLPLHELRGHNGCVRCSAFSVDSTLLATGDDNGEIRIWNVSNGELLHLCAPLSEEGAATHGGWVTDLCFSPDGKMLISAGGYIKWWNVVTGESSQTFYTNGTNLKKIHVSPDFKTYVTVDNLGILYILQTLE
The assay can be described thus: SAR analysis of small molecule Activators of Apaf-1 in a Fluorescent assay. Particulars: read-out: EC50_Mean.

Assay [2] addresses T2, Sentrin-specific protease 6 (Homo sapiens, UniProt Q9GZR1).
T2 sequence (Q9GZR1 whole entry): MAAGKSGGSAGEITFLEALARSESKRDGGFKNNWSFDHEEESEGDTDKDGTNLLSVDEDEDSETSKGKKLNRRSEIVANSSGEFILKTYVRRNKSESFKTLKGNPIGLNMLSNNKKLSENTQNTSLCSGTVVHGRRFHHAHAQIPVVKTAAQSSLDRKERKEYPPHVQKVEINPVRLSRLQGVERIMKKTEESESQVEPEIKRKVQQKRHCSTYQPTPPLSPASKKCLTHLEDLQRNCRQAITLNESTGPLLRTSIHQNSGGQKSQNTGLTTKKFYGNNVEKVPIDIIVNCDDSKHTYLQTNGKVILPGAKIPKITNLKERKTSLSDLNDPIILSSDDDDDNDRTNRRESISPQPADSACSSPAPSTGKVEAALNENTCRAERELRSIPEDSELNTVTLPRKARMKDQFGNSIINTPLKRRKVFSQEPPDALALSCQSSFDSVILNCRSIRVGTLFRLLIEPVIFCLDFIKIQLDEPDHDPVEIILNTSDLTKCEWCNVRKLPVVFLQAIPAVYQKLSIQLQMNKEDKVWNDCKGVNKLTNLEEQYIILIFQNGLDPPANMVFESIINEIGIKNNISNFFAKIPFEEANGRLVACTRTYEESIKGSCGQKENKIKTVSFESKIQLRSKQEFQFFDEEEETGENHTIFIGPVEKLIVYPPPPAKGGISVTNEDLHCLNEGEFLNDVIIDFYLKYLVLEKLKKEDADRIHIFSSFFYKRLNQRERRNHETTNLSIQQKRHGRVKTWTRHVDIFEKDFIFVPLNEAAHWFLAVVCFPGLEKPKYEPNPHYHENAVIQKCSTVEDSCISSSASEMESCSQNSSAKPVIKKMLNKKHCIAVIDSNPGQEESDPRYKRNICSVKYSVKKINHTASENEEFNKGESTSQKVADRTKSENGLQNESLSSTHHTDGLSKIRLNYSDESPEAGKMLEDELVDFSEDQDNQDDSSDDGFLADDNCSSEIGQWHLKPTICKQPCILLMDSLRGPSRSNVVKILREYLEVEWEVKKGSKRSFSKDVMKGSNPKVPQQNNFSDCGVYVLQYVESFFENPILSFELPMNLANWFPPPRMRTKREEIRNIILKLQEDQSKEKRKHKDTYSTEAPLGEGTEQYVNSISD
Put plainly: SAR Analysis of small molecule inhibitors of Sentrin-specific protease 6 (SENP6) using a Luminescent assay. [Related pubchem assays (depositor defined):AID2582, AID2599].

For assay [3], the target named is T3, Sentrin-specific protease 8 (Homo sapiens, UniProt Q96LD8).
T3 sequence (Q96LD8 whole entry): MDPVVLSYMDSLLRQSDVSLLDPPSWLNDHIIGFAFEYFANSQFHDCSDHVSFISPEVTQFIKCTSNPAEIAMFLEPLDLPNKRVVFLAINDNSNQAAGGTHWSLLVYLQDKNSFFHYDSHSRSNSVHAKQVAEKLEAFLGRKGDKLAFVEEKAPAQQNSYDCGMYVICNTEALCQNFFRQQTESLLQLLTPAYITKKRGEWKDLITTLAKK
The assay can be described thus: SENP8 protease inhibitors, SAR follow-up, biochemical, luminescence, set 2 (AID 588601).

Assay [4] addresses T4, Caspase-3 (Homo sapiens, UniProt P42574).
T4 sequence (P42574 whole entry): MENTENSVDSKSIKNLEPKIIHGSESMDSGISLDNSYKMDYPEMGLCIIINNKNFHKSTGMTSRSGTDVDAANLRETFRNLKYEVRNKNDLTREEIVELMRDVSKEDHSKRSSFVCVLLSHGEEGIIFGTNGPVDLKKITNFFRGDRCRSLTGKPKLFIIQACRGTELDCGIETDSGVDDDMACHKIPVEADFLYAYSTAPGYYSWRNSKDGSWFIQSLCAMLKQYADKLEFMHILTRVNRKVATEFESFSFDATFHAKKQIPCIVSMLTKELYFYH
Put plainly: SAR Analysis of small molecule inhibitors of Sentrin-specific proteases (SENPs) using a Caspase-3 Selectivity assay. [Related pubchem assays (depositor defined):AID2540, AID2599, AID434973, AID489001].

Assay [5] addresses T4, Caspase-3. The assay can be described thus: caspase-3 inhibitors as off-family protease, SAR follow-up, selectivity assay for SENP protease inhibitor project, biochemical, luminescence, set 2 (AID 588599).
For assay [6], the target named is T5, Sentrin-specific protease 7 (Homo sapiens, UniProt Q9BQF6).
T5 sequence (Q9BQF6 whole entry): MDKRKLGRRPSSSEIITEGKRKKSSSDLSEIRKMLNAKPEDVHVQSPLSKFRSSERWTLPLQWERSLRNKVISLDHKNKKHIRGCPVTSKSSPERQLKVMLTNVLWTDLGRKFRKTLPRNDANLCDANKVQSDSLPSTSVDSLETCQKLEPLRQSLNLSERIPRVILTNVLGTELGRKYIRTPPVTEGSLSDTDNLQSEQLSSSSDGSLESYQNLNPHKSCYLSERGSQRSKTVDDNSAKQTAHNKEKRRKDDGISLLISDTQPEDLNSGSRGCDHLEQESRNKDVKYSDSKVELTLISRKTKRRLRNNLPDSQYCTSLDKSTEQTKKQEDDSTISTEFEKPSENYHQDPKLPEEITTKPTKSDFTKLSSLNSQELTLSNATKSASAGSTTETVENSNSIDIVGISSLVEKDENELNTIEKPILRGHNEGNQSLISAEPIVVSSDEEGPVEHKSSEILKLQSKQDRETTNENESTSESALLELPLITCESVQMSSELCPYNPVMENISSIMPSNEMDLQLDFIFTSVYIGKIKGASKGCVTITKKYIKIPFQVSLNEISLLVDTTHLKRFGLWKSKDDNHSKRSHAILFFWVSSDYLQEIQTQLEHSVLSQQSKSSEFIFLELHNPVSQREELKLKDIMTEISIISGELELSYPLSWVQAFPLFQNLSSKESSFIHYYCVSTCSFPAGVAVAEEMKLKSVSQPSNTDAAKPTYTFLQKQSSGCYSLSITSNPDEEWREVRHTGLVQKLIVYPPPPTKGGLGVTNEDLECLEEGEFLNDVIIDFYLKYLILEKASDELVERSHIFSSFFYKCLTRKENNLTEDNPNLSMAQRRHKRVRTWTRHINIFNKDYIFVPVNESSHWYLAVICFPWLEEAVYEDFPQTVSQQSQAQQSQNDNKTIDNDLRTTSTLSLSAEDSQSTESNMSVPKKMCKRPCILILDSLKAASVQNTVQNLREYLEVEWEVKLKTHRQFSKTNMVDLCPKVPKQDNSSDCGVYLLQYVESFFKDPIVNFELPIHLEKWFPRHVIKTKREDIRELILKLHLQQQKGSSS
The assay can be described thus: SENP7 protease inhibitors, SAR follow-up, biochemical, luminescence (AID 504497).

The target in assay [7] is T2, Sentrin-specific protease 6. Put plainly: SENP6 protease inhibitors, SAR follow-up, biochemical, luminescence, set 2 (AID 588598).
The target in assay [8] is T3, Sentrin-specific protease 8. Put plainly: SENP8 protease inhibitors, SAR follow-up, biochemical, luminescence (AID 504501).
For assay [9], the target named is T5, Sentrin-specific protease 7. Put plainly: SENP7 protease inhibitors, SAR follow-up, biochemical, luminescence, set 2 (AID 588600).
Assay [10] addresses Vascular endothelial growth factor receptor 2 (Homo sapiens, UniProt P35968).
For assay [11], the target named is Aurora kinase A (Homo sapiens, UniProt O14965).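 Further: value from the Navigating the Kinome kinase panel profiling, panel entry STK6.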
Assay [12] addresses Aurora kinase B (Homo sapiens, UniProt Q96GD4).
Assay [13] concerns the target Melanin-concentrating hormone receptor 1 (Homo sapiens, UniProt Q99705). The assay can be described thus: Late-stage fluorescence-based counterscreen for antagonists of the G-protein coupled receptor 7 (GPR7): cell-based dose response assay to identify antagonists of the melanin-concentrating hormone receptor 1 (MCHR1) Set 6. (Counterscreens check selectivity or assay interference.)

The target in assay [14] is T6, Neuropeptides B/W receptor type 1 (Homo sapiens, UniProt P48145).
T6 sequence (P48145 whole entry): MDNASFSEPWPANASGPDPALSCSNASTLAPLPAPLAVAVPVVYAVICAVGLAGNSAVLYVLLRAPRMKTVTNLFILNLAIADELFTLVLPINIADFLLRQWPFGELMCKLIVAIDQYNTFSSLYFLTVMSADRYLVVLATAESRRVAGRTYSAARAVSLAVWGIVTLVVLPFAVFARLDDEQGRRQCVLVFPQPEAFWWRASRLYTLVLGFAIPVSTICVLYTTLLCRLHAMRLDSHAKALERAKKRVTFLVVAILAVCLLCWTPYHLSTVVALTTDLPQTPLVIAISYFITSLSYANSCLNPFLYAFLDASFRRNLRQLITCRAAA
The assay can be described thus: GPR7 antagonist potency, late-stage follow-up, cell-based, fluorescence, dose response, set 6 (AID 588583).

The values below come from ChEMBL document CHEMBL1201862, “PubChem BioAssay data set” (2004).

The term IC50 denotes the midpoint of a concentration-inhibition curve. The Ki is the dissociation constant of the complex between target and ligand, obtained from inhibition or displacement.

Active and inactive are the calls of the source. For most assays here, no stated cut-off is given here; in the data, actives have a measured IC50 and inactives only a lower limit. A value given as a limit tells only on which side of the number the result lay.

Chain of Melanin-concentrating hormone receptor 1 (Q99705 whole entry): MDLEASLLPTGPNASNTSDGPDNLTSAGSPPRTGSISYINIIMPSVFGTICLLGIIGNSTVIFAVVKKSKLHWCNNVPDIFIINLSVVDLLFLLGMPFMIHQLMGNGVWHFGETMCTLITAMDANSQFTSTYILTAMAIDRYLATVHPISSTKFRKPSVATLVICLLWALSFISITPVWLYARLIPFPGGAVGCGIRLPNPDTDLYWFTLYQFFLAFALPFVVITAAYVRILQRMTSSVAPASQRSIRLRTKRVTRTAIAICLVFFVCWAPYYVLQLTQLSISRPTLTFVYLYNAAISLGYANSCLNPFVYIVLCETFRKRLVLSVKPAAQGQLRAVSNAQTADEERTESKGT
Chain of Aurora kinase A (O14965 whole entry): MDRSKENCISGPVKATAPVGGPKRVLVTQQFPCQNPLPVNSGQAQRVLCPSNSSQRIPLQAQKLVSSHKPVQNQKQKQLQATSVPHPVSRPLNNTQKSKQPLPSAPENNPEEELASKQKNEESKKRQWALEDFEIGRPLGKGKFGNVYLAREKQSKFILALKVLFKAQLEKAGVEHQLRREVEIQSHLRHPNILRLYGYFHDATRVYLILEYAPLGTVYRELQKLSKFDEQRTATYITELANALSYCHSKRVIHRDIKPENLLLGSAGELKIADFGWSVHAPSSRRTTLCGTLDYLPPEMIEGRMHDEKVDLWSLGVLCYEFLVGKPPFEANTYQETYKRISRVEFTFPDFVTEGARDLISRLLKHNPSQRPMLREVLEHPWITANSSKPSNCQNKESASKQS
Chain of Vascular endothelial growth factor receptor 2 (P35968 whole entry): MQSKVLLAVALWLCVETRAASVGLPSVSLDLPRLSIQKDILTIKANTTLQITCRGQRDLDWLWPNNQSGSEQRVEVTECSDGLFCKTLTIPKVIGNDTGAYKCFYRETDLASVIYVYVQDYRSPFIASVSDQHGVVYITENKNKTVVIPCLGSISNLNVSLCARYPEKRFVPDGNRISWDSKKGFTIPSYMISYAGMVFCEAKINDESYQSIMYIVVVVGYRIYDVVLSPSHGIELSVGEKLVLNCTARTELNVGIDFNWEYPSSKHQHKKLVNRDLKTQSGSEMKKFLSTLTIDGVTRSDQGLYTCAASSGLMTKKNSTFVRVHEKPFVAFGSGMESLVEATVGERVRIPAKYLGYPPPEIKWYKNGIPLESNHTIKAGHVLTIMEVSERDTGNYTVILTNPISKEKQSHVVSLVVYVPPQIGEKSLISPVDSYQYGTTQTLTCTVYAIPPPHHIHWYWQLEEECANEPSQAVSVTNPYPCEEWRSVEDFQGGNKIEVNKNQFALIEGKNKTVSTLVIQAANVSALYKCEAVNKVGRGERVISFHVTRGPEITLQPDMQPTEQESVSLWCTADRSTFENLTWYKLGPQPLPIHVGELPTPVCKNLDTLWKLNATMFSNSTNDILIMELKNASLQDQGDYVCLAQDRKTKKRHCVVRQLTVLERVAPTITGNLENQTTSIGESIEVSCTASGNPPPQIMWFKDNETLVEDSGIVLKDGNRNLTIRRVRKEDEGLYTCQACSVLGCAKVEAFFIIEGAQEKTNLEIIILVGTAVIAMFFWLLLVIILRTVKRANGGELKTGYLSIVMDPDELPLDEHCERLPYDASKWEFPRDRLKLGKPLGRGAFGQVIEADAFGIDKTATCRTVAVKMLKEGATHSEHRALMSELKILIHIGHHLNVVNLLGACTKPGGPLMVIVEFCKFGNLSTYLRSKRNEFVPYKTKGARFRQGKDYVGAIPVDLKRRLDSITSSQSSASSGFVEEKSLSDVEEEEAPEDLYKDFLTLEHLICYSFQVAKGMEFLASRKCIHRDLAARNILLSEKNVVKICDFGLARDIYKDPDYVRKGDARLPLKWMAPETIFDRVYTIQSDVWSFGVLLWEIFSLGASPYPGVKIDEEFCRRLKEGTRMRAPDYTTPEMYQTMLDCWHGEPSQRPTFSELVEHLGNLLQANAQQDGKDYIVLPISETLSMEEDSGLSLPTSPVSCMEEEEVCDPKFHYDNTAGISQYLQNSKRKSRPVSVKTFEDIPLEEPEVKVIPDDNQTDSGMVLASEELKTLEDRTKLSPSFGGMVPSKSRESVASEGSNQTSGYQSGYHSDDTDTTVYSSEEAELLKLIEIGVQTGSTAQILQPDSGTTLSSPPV
Chain of Aurora kinase B (Q96GD4 whole entry): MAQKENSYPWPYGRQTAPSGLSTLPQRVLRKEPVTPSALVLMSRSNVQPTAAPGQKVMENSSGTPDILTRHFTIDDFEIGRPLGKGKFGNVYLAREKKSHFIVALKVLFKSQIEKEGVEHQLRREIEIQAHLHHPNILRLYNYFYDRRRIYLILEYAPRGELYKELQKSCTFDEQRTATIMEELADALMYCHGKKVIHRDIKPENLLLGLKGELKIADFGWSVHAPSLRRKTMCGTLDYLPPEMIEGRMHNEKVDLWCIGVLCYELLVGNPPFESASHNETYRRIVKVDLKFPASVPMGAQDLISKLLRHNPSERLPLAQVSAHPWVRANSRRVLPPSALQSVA

On to `CCOc1ccccc1NC(=O)CCS(=O)(=O)c1ccc2c(c1)oc(=O)n2C`, for which, in assay [1], the EC50 is > 100 µM (inactive).

Consider `Cc1cccc(-c2nc(/C=C/c3ccccc3)no2)c1`, for which the IC50 in assay [2] was 49 µM (active); in assay [3], 16.7 µM (active); in assay [4], 52 µM (active); in assay [5], 48.6 µM (active); in assay [6], 16 µM (active); in assay [7], 16.7 µM (active). For the same molecule, the IC50 in assay [8] is 48 µM (active); in assay [9], 14.9 µM (active).

For `Cc1ccc(-c2nc3ccc(Br)cc3c(C(=O)O)c2CC(=O)O)cc1`, the Ki is 0.501 µM (active) in [10], 0.0794 µM (active) in assay [11] and 0.158 µM (active) in assay [12].

Regarding `COc1ccc(Oc2c(CO)cnn(Cc3cccc4ccccc34)c2=O)cc1`, the IC50 in [13] and in [14] was 2.99 µM (active) throughout.

Consider `CCCCc1ccc2nc(NC(=O)c3ccsc3)sc2c1`, for which the IC50 in [2] is 2.8 µM (active); in assay [3] it was 1.8 µM (active); in assay [4], 6.2 µM (active); in assay [5], 5.28 µM (active); in assay [6], 1.9 µM (active); in assay [7], 1.84 µM (active). Moreover, the IC50 in assay [8] is 3.1 µM (active); in assay [9] it was 1.96 µM (active).

On to `N#CC(c1cccs1)c1c(Cl)cnn(Cc2cccc3ccccc23)c1=O` (centres undefined), for which the half-maximal inhibitory concentration (IC50) in assay [13] and in assay [14] was 1.07 µM (active) in each case.
